Laboratory results reported in ChEMBL document CHEMBL4665709, “Rational Avoidance of Protease Cleavage Sites and Symmetrical End-Tagging Significantly Enhances the Stability and Therapeutic Potential of Antimicrobial Peptides” (J Med Chem, 2020).
In brackets after ≈: the same amount, converted by molar mass. Activity calls are given as the source filed them. The rule behind the calls is not given here. Where a SMILES comes first, the peptide text is derived from it.

What was measured:
RAW264.7 = assay: Antiinflammatory activity in mouse RAW264.7 cells assessed as inhibition of LPS-induced IL-1beta production after 24 hrs by ELISA; type: functional, cell-based
[1] = Toxicity in C57BL/6 mouse assessed as effect on alanine aminotransferase level at 10 mg/kg, ip measured after 5 days; type: organism-based; conditions: in vivo, 120 h, time 5 day
Staphylococcus aureus [2] = assay: Antibacterial activity against Staphylococcus aureus ATCC 29213 after 18 to 24 hrs in presence of 150 mM Na+ by CLSI-based broth microdilution method; type: functional; conditions: time hrs 18-24
Escherichia coli [3] = assay: Antibacterial activity against Escherichia coli ATCC 25922 infected in C57BL/6 mouse assessed as reduction in IL-6 level in serum at 10 mg/kg, ip measured after 11 hrs by ELISA; type: functional, organism-based
Cell membrane [4] = assay: Disruption of membrane integrity in Staphylococcus aureus ATCC 29213 assessed as induction of membrane rupture after 1 hr by PI-staining based flow cytometry analysis
Staphylococcus aureus [5] = assay: Antibacterial activity against Staphylococcus aureus 29213 with 0.0625-2 mg/mL chymotrypsin for 1 hr followed by test compound addition measured after 4 to 8 hrs by CLSI-based broth microdilution method; type: functional, organism-based; conditions: time hrs 4-8
Escherichia coli [6] = assay: Antibacterial activity against Escherichia coli ATCC 25922 after 18 to 24 hrs by CLSI-based broth microdilution method; type: functional; conditions: time hrs 18-24
Staphylococcus aureus [7] = assay: Antibacterial activity against Staphylococcus aureus ATCC 29213 after 18 to 24 hrs in presence of 1 mM Mg2+ by CLSI-based broth microdilution method; type: functional; conditions: time hrs 18-24
Escherichia coli [8] = assay: Antibacterial activity against Escherichia coli ATCC 25922 measured after 18 to 24 hrs in presence of pepsin by CLSI-based broth microdilution method; type: functional, organism-based; conditions: time hrs 18-24
Escherichia coli [9] = assay: Antibacterial activity against Escherichia coli ATCC 25922 infected in C57BL/6 mouse assessed as reduction in bacterial load in lung at 10 mg/kg, ip measured after 11 hrs (reference value: 6.48 log CFU/g); type: functional
Escherichia coli [10] = assay: Antibacterial activity against Escherichia coli ATCC 25922 infected in C57BL/6 mouse assessed as reduction in bleeding in spleen at 10 mg/kg, ip measured after 11 hrs by hematoxylin and eosin staining based assay; type: functional, organism-based
[11] = Therapeutic index, ratio of MHC for human RBC to geometric mean of peptide MIC for Salmonella pullorum 7913; type: toxicity; conditions: human red blood cells (RBC), read-out: TI
Cell membrane [12] = assay: Induction of morpholoical changes in membrane of Escherichia coli ATCC 25922 assessed as breakage in bacterial membrane at 1 times MIC after 1 hr by scanning electron microscopy
[13] = Toxicity in C57BL/6 mouse assessed as effect on aspartate aminotransferase level at 10 mg/kg, ip measured after 5 days; type: organism-based; conditions: in vivo, 120 h, time 5 day
[14] = Toxicity in C57BL/6 mouse assessed as effect on alanine aminotransferase level at 20 mg/kg, ip measured after 5 days; type: organism-based; conditions: in vivo, 120 h, time 5 day
Cell membrane [15] = assay: Disruption of membrane integrity in Escherichia coli ATCC 25922 assessed as induction of membrane rupture after 1 hr by PI-staining based flow cytometry analysis; type: subcellular
Escherichia coli [16] = assay: Antibacterial activity against Escherichia coli ATCC 25922 after 18 to 24 hrs in presence of 100% human serum by CLSI-based broth microdilution method; type: functional; conditions: time hrs 18-24
Streptococcus agalactiae = assay: Antibacterial activity against Streptococcus agalactiae H92 after 18 to 24 hrs by CLSI-based broth microdilution method; type: functional; conditions: time hrs 18-24
[17] = Therapeutic index, ratio of MHC for human RBC to geometric mean of peptide MIC for methicillin-resistant Staphylococcus aureus 43300; type: toxicity; conditions: human red blood cells (RBC), read-out: TI
[18] = Cytotoxicity against HEK-293T cells assessed as cell viability at 128 uM by MTT assay relative to control; type: cell-based; conditions: human, read-out: Activity
Escherichia coli [19] = assay: Antibacterial activity against Escherichia coli ATCC 25922 infected in C57BL/6 mouse assessed as reduction in lesion in lung at 10 mg/kg, ip measured after 11 hrs by hematoxylin and eosin staining based assay; type: functional, organism-based
Escherichia coli [20] = assay: Antibacterial activity against Escherichia coli ATCC 25922 infected in C57BL/6 mouse assessed as reduction in IL-1beta level in serum at 10 mg/kg, ip measured after 11 hrs by ELISA; type: functional, organism-based
[21] = Toxicity in C57BL/6 mouse assessed as effect on creatinine level at 20 mg/kg, ip measured after 5 days; type: organism-based; conditions: in vivo, 120 h, time 5 day
Escherichia coli [22] = assay: Antibacterial activity against Escherichia coli ATCC 25922 infected in C57BL/6 mouse assessed as reduction in lesion in kidney at 10 mg/kg, ip measured after 11 hrs by hematoxylin and eosin staining based assay; type: functional, organism-based
[23] = Toxicity in C57BL/6 mouse assessed as effect on total bilirubin level at 20 mg/kg, ip measured after 5 days; type: organism-based; conditions: in vivo, 120 h, time 5 day
[24] = Hemolytic activity in human RBC assessed as hemolysis at 1 to 128 uM relative to control; type: ADME, cell-based, Erythrocyte; conditions: human red blood cells (RBC), dose 1-128 µM, read-out: Activity
Cell membrane [25] = assay: Induction of membrane in permeabilization Staphylococcus aureus ATCC 29213 after 1 hr by FITC/PI fluorescence staining-based confocal microscopy analysis
Cell membrane [26] = assay: Induction of structural changes in membrane of Escherichia coli ATCC 25922 assessed as membrane rupture at 1 times MIC after 1 hr by transmission electron microscopy; type: subcellular
Staphylococcus aureus [27] = assay: Antibacterial activity against Staphylococcus aureus ATCC 29213 after 18 to 24 hrs in presence of 25% human serum by CLSI-based broth microdilution method; type: functional; conditions: time hrs 18-24
[28] = Therapeutic index, ratio of MHC for human RBC to geometric mean of peptide MIC for Salmonella choleraesuis 503; type: toxicity; conditions: human red blood cells (RBC), read-out: TI
Cell membrane [29] = assay: Induction of cytoplasmic membrane depolarization in Escherichia coli ATCC 25922 at 0.5 to 2 times MIC up to 1000 secs by DiSC3-5 dye-based fluorescence assay; type: subcellular; conditions: time sec <=1000
[30] = Toxicity in C57BL/6 mouse assessed as change in body weigh at 10 mg/kg, ip measured for 5 days; type: organism-based; conditions: in vivo, 120 h, time 5 day
Escherichia coli [31] = assay: Antibacterial activity against Escherichia coli ATCC 25922 infected in C57BL/6 mouse assessed as reduction in bacterial load in liver at 10 mg/kg, ip measured after 11 hrs (reference value: 7.12 log CFU/g); type: functional
Escherichia coli [32] = assay: Antibacterial activity against Escherichia coli ATCC 25922 measured after 18 to 24 hrs in presence of trypsin by CLSI-based broth microdilution method; type: functional, organism-based; conditions: time hrs 18-24
Staphylococcus aureus [33] = assay: Antibacterial activity against Staphylococcus aureus 11011 after 18 to 24 hrs by CLSI-based broth microdilution method; type: functional; conditions: time hrs 18-24
Cell membrane [34] = assay: Induction of morpholoical changes in membrane of Staphylococcus aureus ATCC 29213 assessed as breakage in bacterial membrane at 1 times MIC after 1 hr by scanning electron microscopy; type: subcellular
Escherichia coli [35] = assay: Antibacterial activity against Escherichia coli ATCC 25922 infected in C57BL/6 mouse assessed as reduction in TNF-alpha level in serum at 10 mg/kg, ip measured after 11 hrs by ELISA; type: functional, organism-based
[36] = Therapeutic index, ratio of MHC for human RBC to geometric mean of peptide MIC for Staphylococcus aureus 11011; type: toxicity; conditions: human red blood cells (RBC), read-out: TI

**Q.** With `CC[C@H](C)[C@H](N)C(=O)N[C@H](C(=O)N[C@H](C(=O)N[C@@H](CS)C(=O)N[C@@H](CCCNC(=N)N)C(=O)N[C@@H](CCCCN)C(=O)N1CCC[C@H]1C(=O)N[C@H](C(=O)N[C@H](C(=O)N[C@@H](CS)C(=O)N[C@@H](CCCNC(=N)N)C(=O)N[C@@H](CCCCN)C(=O)N1CCC[C@H]1C(=O)N[C@H](C(=O)N[C@H](C(=O)N[C@@H](CS)C(=O)N[C@@H](CCCNC(=N)N)C(=O)N[C@@H](CCCCN)C(=O)N1CCC[C@H]1C(=O)N[C@H](C(=O)N[C@H](C(=O)N[C@@H](CS)C(=O)N[C@@H](CCCNC(=N)N)C(=O)N[C@@H](CCCCN)C(=O)N1CCC[C@H]1C(=O)N[C@H](C(=O)N[C@H](C(=O)N[C@H](C(N)=O)[C@@H](C)CC)[C@@H](C)CC)[C@@H](C)CC)[C@@H](C)CC)[C@@H](C)CC)[C@@H](C)CC)[C@@H](C)CC)[C@@H](C)CC)[C@@H](C)CC)[C@@H](C)CC)[C@@H](C)CC` (H-IIICRKPIICRKPIICRKPIICRKPIII-NH2) as the molecule, how does the Activity (RAW264.7) read?
**A.** Dose-dependent effect

**Q.** And the Activity [1]?
**A.** Non-Toxic

**Q.** And the MIC (Staphylococcus aureus [2])?
**A.** 16 µM

**Q.** And the Activity (Escherichia coli [3])?
**A.** Active

**Q.** What about the Activity (Cell membrane [4]) of the same molecule?
**A.** Dose-dependent effect

**Q.** And the Activity (Staphylococcus aureus [5])?
**A.** Active

**Q.** And the MIC (Escherichia coli [6])?
**A.** 2 µM (≈ 6.63 µg/mL)

**Q.** What about the MIC (Staphylococcus aureus [7]) of the same molecule?
**A.** 16 µM

**Q.** And the Activity (Escherichia coli [8])?
**A.** Active

**Q.** And the Activity (Escherichia coli [9])?
**A.** 5.58 log10CFU/g

**Q.** And the Activity (Escherichia coli [10])?
**A.** Active

**Q.** And the selectivity ratio [11]?
**A.** 57

**Q.** What about the Activity (Cell membrane [12]) of the same molecule?
**A.** Active

**Q.** And the Activity [13]?
**A.** Non-Toxic

**Q.** What about the Activity [14] of the same molecule?
**A.** Non-Toxic

**Q.** And the Activity (Cell membrane [15])?
**A.** Dose-dependent effect

**Q.** And the MIC (Escherichia coli [16])?
**A.** 8 µM

**Q.** And the MIC (Streptococcus agalactiae)?
**A.** 2 µM (≈ 6.63 µg/mL)

**Q.** And the selectivity ratio [17]?
**A.** 28.5

**Q.** And the viability at 128 µM [18]?
**A.** > 90%

**Q.** What about the Activity (Escherichia coli [19]) of the same molecule?
**A.** Active

**Q.** And the Activity (Escherichia coli [20])?
**A.** Active

**Q.** What about the Activity [21] of the same molecule?
**A.** Non-Toxic

**Q.** And the Activity (Escherichia coli [22])?
**A.** Active

**Q.** And the Activity [23]?
**A.** Non-Toxic

**Q.** And the hemolysis at up to 128 µM [24]?
**A.** < 5%

**Q.** And the Activity (Cell membrane [25])?
**A.** Active

**Q.** And the Activity (Cell membrane [26])?
**A.** Active

**Q.** And the MIC (Staphylococcus aureus [27])?
**A.** 8 µM

**Q.** And the selectivity ratio [28]?
**A.** 57

**Q.** What about the Activity (Cell membrane [29]) of the same molecule?
**A.** Active

**Q.** What about the Activity [30] of the same molecule?
**A.** Non-Toxic

**Q.** What about the Activity (Escherichia coli [31]) of the same molecule?
**A.** 5.08 log10CFU/g

**Q.** What about the Activity (Escherichia coli [32]) of the same molecule?
**A.** Active

**Q.** What about the MIC (Staphylococcus aureus [33]) of the same molecule?
**A.** 4 µM (≈ 13.3 µg/mL)

**Q.** What about the Activity (Cell membrane [34]) of the same molecule?
**A.** Active

**Q.** What about the Activity (Escherichia coli [35]) of the same molecule?
**A.** Active

**Q.** What about the selectivity ratio [36] of the same molecule?
**A.** 28.5
